Columns and labels:
Wee1 = Wee1 (Homo sapiens, UniProt P30291); assay: Wee1 pCDK1 activity (known assay); assay type: cell-based
Description: (§1) The Wee1 pCDK1 and PLK1 activities were determined using known assays.

PLK1 = PLK1 (Homo sapiens, UniProt P53350); assay: PLK1 activity (known assay); assay type: biochemical
Description: as §1

PLK1, sequence (P53350 whole entry, species assumed): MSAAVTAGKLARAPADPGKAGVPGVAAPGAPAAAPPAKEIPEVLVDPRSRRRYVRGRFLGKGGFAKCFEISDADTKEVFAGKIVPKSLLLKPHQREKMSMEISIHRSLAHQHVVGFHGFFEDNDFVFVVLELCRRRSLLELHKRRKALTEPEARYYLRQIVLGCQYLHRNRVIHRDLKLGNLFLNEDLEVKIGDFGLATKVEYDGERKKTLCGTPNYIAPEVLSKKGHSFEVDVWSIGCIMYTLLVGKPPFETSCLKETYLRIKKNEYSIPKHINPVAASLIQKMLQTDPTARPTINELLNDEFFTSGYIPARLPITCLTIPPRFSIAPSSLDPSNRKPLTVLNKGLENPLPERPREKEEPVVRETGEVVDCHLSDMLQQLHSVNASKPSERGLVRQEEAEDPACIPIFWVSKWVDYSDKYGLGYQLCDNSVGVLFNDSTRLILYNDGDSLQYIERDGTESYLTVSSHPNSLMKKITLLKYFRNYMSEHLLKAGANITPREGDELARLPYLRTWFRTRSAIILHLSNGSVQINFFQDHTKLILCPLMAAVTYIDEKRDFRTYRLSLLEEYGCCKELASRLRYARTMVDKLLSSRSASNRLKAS
Wee1, sequence (P30291 whole entry, species assumed): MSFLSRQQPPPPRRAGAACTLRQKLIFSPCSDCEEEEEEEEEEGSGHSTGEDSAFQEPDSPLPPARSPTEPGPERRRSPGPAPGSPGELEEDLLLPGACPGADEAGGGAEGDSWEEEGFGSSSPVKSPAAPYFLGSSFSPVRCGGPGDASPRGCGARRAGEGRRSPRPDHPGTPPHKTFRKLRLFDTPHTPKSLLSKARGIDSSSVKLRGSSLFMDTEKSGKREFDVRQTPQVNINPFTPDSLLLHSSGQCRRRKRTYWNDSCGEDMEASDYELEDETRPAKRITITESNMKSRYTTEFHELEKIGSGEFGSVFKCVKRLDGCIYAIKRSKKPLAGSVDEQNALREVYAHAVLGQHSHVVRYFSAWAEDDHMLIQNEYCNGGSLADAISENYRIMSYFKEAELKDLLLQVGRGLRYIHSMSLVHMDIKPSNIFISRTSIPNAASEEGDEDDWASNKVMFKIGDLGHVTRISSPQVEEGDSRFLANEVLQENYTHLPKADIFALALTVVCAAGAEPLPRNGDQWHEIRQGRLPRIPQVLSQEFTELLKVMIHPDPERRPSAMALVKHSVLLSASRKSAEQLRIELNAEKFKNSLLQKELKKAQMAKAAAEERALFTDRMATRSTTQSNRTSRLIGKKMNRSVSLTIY

For `CCC1(O)CCc2ccc(Nc3nc(Nc4ccc(N5CCNCC5)c(C)c4)ncc3C#N)nc21` (stereo not drawn) [Example 17, 4-[(7-ethyl-7-hydroxy-5,6-dihydrocyclopenta[b]pyridin-2-yl)amino]-2-(3-methyl-4-piperazin-1-yl-anilino)pyrimidine-5-carbonitrile], the IC50 (Wee1) was no more than 0.1 µM and the IC50 (PLK1) was no more than 0.1 µM.
Molecule `CCC1(O)CCc2ccc(Nc3nc(Nc4ccc(N5C6CCC5CN(C)C6)cc4)ncc3C#N)nc21` (stereo not drawn) [Example 36, 4-[(7-ethyl-7-hydroxy-5,6-dihydrocyclopenta[b]pyridin-2-yl)amino]-2-[4-(3-methyl-3,8-diazabicyclo[3.2.1]octan-8-yl)anilino]pyrimidine-5-carbonitrile] has an IC50 (Wee1) of 0.25 to 0.5 µM and an IC50 (PLK1) greater than 1 µM.
With `CN1CCc2cc(Nc3ncc(C#N)c(Nc4cccc(N5CCCC5=O)n4)n3)cc(Cl)c2C1` [Example 76, 2-[(8-chloro-2-methyl-3,4-dihydro-1H-isoquinolin-6-yl)amino]-4-[[6-(2-oxopyrrolidin-1-yl)-2-pyridyl]amino]pyrimidine-5-carbonitrile] the IC50 (Wee1) was 0.5 to 1 µM and the IC50 (PLK1) was greater than 1 µM.
With `CCC1(O)CCc2ccc(Nc3nc(Nc4ccc(N5CC6CCC(C5)N6C)cc4)ncc3C#N)nc21` (stereo not drawn) [Example 35, 4-[(7-ethyl-7-hydroxy-5,6-dihydrocyclopenta[b]pyridin-2-yl)amino]-2-[4-(8-methyl-3,8-diazabicyclo[3.2.1]octan-3-yl)anilino]pyrimidine-5-carbonitrile] the IC50 (Wee1) was 0.1 to 0.25 µM and the IC50 (PLK1) was no more than 0.1 µM.
`CN1CCc2cc(Nc3ncc(C#N)c(Nc4cccc(N5CCOC5=O)n4)n3)cc(Cl)c2C1` [Example 13, 2-[(8-chloro-2-methyl-3,4-dihydro-1H-isoquinolin-6-yl)amino]-4-[[6-(2-oxooxazolidin-3-yl)-2-pyridyl]amino]pyrimidine-5-carbonitrile] was tested, and the IC50 (Wee1) was no more than 0.1 µM and the IC50 (PLK1) was greater than 1 µM.
Work on `CCC1(O)CCc2ccc(Nc3nc(Nc4ccc5c(c4)CNCC54CC4)ncc3C#N)nc21` (stereo not drawn) [Example 55, 4-[(7-ethyl-7-hydroxy-5,6-dihydrocyclopenta[b]pyridin-2-yl)amino]-2-(spiro[2,3-dihydro-1H-isoquinoline-4,1′-cyclopropane]-7-ylamino)pyrimidine-5-carbonitrile] yielded an IC50 (Wee1) greater than 1 µM and an IC50 (PLK1) of no more than 0.1 µM.
`CCC1(O)CCc2ccc(Nc3nc(Nc4ccc5c(c4)CCN(C)C5)ncc3C#N)nc21` (stereo not drawn) [Example 46, 4-[(7-ethyl-7-hydroxy-5,6-dihydrocyclopenta[b]pyridin-2-yl)amino]-2-[(2-methyl-3,4-dihydro-1H-isoquinolin-6-yl)amino]pyrimidine-5-carbonitrile] was tested, and the IC50 (Wee1) was 0.1 to 0.25 µM and the IC50 (PLK1) was 0.25 to 0.5 µM.
For `CN1CCN(c2ccc(Nc3ncc(C#N)c(Nc4cccc(N5CCCC5=O)n4)n3)cc2)CC1` [Example 5, 2-[4-(4-methylpiperazin-1-yl)anilino]-4-[[6-(2-oxopyrrolidin-1-yl)-2-pyridyl]amino]pyrimidine-5-carbonitrile], the IC50 (Wee1) was 0.1 to 0.25 µM and the IC50 (PLK1) was 0.25 to 0.5 µM.
`CN1CCN(c2ccc(Nc3ncc(C#N)c(Nc4cccc(N5CCCC5=O)n4)n3)cc2)CC1=O` [Example 71, 2-[4-(4-methyl-3-oxo-piperazin-1-yl)anilino]-4-[[6-(2-oxopyrrolidin-1-yl)-2-pyridyl]amino]pyrimidine-5-carbonitrile] was tested, and the IC50 (Wee1) was 0.5 to 1 µM and the IC50 (PLK1) was 0.25 to 0.5 µM.
In the case of `CN1CC2CC1CN2c1ccc(Nc2ncc(C#N)c(Nc3cccc(N4CCCC4=O)n3)n2)cc1` (stereo not drawn) [Example 70, 2-[4-(5-methyl-2,5-diazabicyclo[2.2.1]heptan-2-yl)anilino]-4-[[6-(2-oxopyrrolidin-1-yl)-2-pyridyl]amino]pyrimidine-5-carbonitrile], the IC50 (Wee1) is reported as 0.25 to 0.5 µM and the IC50 (PLK1) is reported as no more than 0.1 µM.
`CCC1(O)CCc2ccc(Nc3nc(Nc4ccc(N5CCN(C)CC5)cc4)ncc3C#N)nc21` (stereo not drawn) [Example 15, 4-[(7-ethyl-7-hydroxy-5,6-dihydrocyclopenta[b]pyridin-2-yl)amino]-2-[4-(4-methylpiperazin-1-yl)anilino]pyrimidine-5-carbonitrile] showed an IC50 (Wee1) of 0.25 to 0.5 µM and an IC50 (PLK1) of no more than 0.1 µM.
Molecule `CCC1(O)CCc2ccc(Nc3nc(Nc4ccc(C5CCN(C)CC5)c(C)c4)ncc3C#N)nc21` (single isomer, unassigned) [Example 22] has an IC50 (Wee1) of 0.25 to 0.5 µM and an IC50 (PLK1) of 0.1 to 0.25 µM.
`CCC1(O)CCc2ccc(Nc3nc(Nc4ccc(N5C6CCC5CN(C)C6)cc4)ncc3C#N)nc21` (single isomer, unassigned) [Example 37] was tested, and the IC50 (Wee1) was greater than 1 µM and the IC50 (PLK1) was greater than 1 µM.
Molecule `CCC1(O)CCc2ccc(Nc3nc(Nc4cc(F)c(C5CCN(C)CC5)c(F)c4)ncc3C#N)nc21` (stereo not drawn) [Example 40, 2-[3,5-difluoro-4-(1-methyl-4-piperidyl)anilino]-4-[(7-ethyl-7-hydroxy-5,6-dihydrocyclopenta[b]pyridin-2-yl)amino]pyrimidine-5-carbonitrile] has an IC50 (Wee1) of 0.5 to 1 µM and an IC50 (PLK1) greater than 1 µM.
In the case of `CCC1(O)CCc2ccc(Nc3nc(Nc4ccc(N5CCNC6(CC6)C5)cc4)ncc3C#N)nc21` (stereo not drawn) [Example 31, 2-[4-(4,7-diazaspiro[2.5]octan-7-yl)anilino]-4-[(7-ethyl-7-hydroxy-5,6-dihydrocyclopenta[b]pyridin-2-yl)amino]pyrimidine-5-carbonitrile], the IC50 (Wee1) is reported as greater than 1 µM and the IC50 (PLK1) is reported as 0.1 to 0.25 µM.
Molecule `CCC1(O)CCc2ccc(Nc3nc(Nc4ccc(C5CCN(C)CC5)c(OC)c4)ncc3C#N)nc21` (stereo not drawn) [Example 45, 4-[(7-ethyl-7-hydroxy-5,6-dihydrocyclopenta[b]pyridin-2-yl)amino]-2-[3-methoxy-4-(1-methyl-4-piperidyl)anilino]pyrimidine-5-carbonitrile] has an IC50 (Wee1) of no more than 0.1 µM and an IC50 (PLK1) of no more than 0.1 µM.
`CCC1(O)CCc2ccc(Nc3nc(Nc4ccc(N5C[C@@H](C)N[C@@H](C)C5)cc4)ncc3C#N)nc21` (mixture of isomers) [Example 32, 4-[(7-ethyl-7-hydroxy-5,6-dihydrocyclopenta[b]pyridin-2-yl)amino]-2-[4-[rac-(3R,5S)-3,5-dimethylpiperazin-1-yl]anilino]pyrimidine-5-carbonitrile] showed an IC50 (Wee1) of 0.1 to 0.25 µM and an IC50 (PLK1) of no more than 0.1 µM.
For `C[C@H]1CN(C)CCN1c1ccc(Nc2ncc(C#N)c(Nc3cccc(N4CCOC4=O)n3)n2)cc1` [Example 9, 4-[[6-(2-oxooxazolidin-3-yl)-2-pyridyl]amino]-2-[4-[(2S)-2,4-dimethylpiperazin-1-yl]anilino]pyrimidine-5-carbonitrile], the IC50 (Wee1) was 0.1 to 0.25 µM and the IC50 (PLK1) was greater than 1 µM.
